Assay results reported in patent US5635510A, “Substituted pyrrolidin-3-yl-alkyl-piperidines” (Merrell Pharmaceuticals Inc., priority 1994, dated 1997).

Key:
NK-3 receptor = molecular target: T1, NK-3 receptor (Cavia porcellus, UniProt P30098); assay: Antagonism of iodinated eledoisin binding to NK3 receptor, guinea pig cerebral cortex
T1 construct: evaluated in freshly collected guinea pig cerebral cortex; from tissue; host or cells: guinea pig cerebral cortex
T1 sequence (P30098 1-440): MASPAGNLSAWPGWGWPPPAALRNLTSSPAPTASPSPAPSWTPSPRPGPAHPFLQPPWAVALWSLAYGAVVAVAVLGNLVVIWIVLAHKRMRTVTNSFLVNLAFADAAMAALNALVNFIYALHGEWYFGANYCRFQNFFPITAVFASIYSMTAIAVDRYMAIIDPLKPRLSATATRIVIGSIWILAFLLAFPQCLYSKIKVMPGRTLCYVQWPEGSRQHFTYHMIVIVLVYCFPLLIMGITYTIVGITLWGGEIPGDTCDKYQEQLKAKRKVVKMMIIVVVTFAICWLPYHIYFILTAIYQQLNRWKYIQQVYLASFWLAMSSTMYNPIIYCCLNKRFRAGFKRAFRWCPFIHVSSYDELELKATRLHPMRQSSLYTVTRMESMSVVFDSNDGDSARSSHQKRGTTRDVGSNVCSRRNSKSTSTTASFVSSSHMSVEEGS
Experimental: ANTAGONISM OF IODINATED TACHYKININ BINDING TO NK1 AND NK2
RECEPTORS BY PUTATIVE ANTAGONISTS
The NK1 receptor affinity of proposed tachykinin antagonists was evaluated in guinea pig lungs (Keystone Biologicals, Cleveland, OH), affinity for the NK2 receptor evaluated in HSKR-1 cells (which are mouse 3T3 fibroblasts expressing the human jejunal NK2 receptor) and NK-3 receptor affinity was evaluated in freshly collected guinea pig cerebral cortex. Tissues or cells were homogenized with a Polytron in 15 volumes of 50 mM Tris-HCl buffer (pH 7.4, 4° C.) and centrifuged. The pellet was resuspended in Tris-HCl buffer and was centrifuged; the pellet was washed twice by resuspension. The final pellet was resuspended at a concentration of 40 mg/ml for tissues (guinea pig lung and cerebral cortex) and 20 mg/ml for cells in incubation buffer and remained at room temperature for at least 15 min prior to use. Receptor binding was initiated by addition of 250 ul membrane preparation in duplicate to 0.1 nM of the following radioligands: ^125 I-Bolton Hunter Lys-3 labeled substance P; ^125 iodohistidyl-1-neurokinin A; and ^125 I-Bolton Hunter labeled Lys-4 eledoisin in a final volume of 500 ul of buffer containing 50 mM Tris-HCl (pH 7.4 at room temperature), 0.1% bovine serum albumin, 2 mM MnCl2, 40 ug/ml bacitracin, 4 μg/ml leupeptin and chymostatin, 1 μM thiorphan and various doses of the putative tachykinin antagonists. Incubations were performed at room temperature for 90 min (NK1 receptor assays) or 2 hr (NK2 and NK3 receptor assays); binding was terminated by addition of 50 mM Tris-HCl buffer (pH 7.4, 4° C.) and filtration under vacuum through GF/B filters presoaked with 0.1% polyethyleneimine (NK1 receptor assays) or 0.5% bovine serum albumin (NK2 and NK3 receptor assays). Filter bound radioactivity was quantitated in a gamma counter. […] Specific binding was calculated by subtracting nonspecific binding from total binding. Competition of iodinated SP, NKA, or eledoisin binding by test compounds or standards was expressed as a percentage of this maximum competition. […]

NK1 receptor = molecular target: T2, NK1 receptor (Cavia porcellus, UniProt P30547); assay: Antagonism of SP-induced plasma protein extravasation in guinea pig trachea; format: in vivo
T2 construct: evaluated in guinea pig lungs; tissue Keystone Biologicals, Cleveland, OH; host or cells: guinea pig lung
Experimental: SP-induced protein leakage through postcapillary venules was assessed by measuring Evans Blue dye accumulation in guinea pig trachea. Animals were anesthetized with pentobarbital then injected with Evans Blue dye (20 mg/kg, i.v., prepared in 0.9% NaCl solution). One minute after dye administration, the antagonist was administered (i.v.) followed by SP (0.3 nmole/kg, i.v.) and, after 5 min, excess dye removed from the circulation by transcardiac perfusion with 50 ml 0.9% NaCl solution. The trachea and primary bronchi were removed, blotted dry and weighed. Dye quantitation was performed spectrophotometrically ([…]) after extracting tissues in formamide for 24 hr at 50° C.. Values were subtracted from background (dye only, no agonist). ED50 (dose of compound which inhibits SP-induced plasma protein extravasation by 50%) was calculated from linear regression analysis.

T2 sequence (P30547 whole entry): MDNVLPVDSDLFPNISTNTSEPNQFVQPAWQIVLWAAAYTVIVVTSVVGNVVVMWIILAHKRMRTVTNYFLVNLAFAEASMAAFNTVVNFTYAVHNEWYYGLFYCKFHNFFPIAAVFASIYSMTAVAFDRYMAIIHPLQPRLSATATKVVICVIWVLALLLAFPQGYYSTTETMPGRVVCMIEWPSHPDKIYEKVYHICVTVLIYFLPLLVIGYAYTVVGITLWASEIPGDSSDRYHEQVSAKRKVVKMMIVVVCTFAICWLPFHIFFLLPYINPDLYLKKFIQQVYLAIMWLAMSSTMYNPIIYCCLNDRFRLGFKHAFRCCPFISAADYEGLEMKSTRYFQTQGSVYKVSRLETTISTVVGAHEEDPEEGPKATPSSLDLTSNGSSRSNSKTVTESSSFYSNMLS

Structure (SMILES)	IC50 (NK-3 receptor; NK-3 IC50, guinea pig cerebral cortex, 125I-eledoisin, mean of several experiments) [nM]	ED50 (NK1 receptor; guinea pig, iv, i.v. 2 min prior to SP, mean (95% confidence limits), at least 3 doses, at least 4 animals per dose, read-out: ED50 for inhibition of SP-induced plasma protein extravasation) [mg/kg]	relative potency against SP-induced plasma protein extravasation (in words) (NK1 receptor; i.v.)	affinity for NK3 receptors (in words) (NK-3 receptor; guinea pig cerebral cortex)	antagonism of SP-induced plasma protein extravasation (in words) (NK1 receptor; i.v., FIG. 2)
COc1cc(C(=O)N2CCC(CCN3CCC(C(N)=O)(c4ccccc4)CC3)(c3ccc(Cl)c(Cl)c3)C2)cc(OC)c1OC (single isomer, unassigned; (+)) [Example 20, (+)-1-[2-[3-(3,4-dichloro-phenyl)-1-(3,4,5-trimethoxy-benzoyl)-pyrrolidin-3-yl]-ethyl]-4-phenylpiperidine-4-carboxylic acid amide]	21	–	–	–	–
COc1cc(C(=O)N2CCC(CCN3CCC(C(N)=O)(c4ccccc4)CC3)(c3ccc(Cl)c(Cl)c3)C2)cc(OC)c1OC.Cl (single isomer, unassigned; (+)) [Example 20A, (+)-1-[2-[3-(3,4-dichloro-phenyl)-1-(3,4,5-trimethoxy-benzoyl)-pyrrolidin-3-yl]-ethyl]-4-phenyl-piperidine-4-carboxylic acid amide hydrochloride]	–	0.2	equipotent NK-1 receptor antagonists	–	–
COc1cc(C(=O)N2CCC(CCN3CCC(C(N)=O)(c4ccccc4)CC3)(c3ccc(Cl)c(Cl)c3)C2)cc(OC)c1OC (stereo not drawn) [Example 3, 1-[2-[3-(3,4-dichloro-phenyl)-1-(3,4,5-trimethoxy-benzoyl)-pyrrolidin-3-yl]-ethyl]-4-phenyl-piperidine-4-carboxylic acid amide]	–	–	equipotent NK-1 receptor antagonists	high affinity	dose related antagonism of SP-induced plasma protein extravasation in guinea pig trachea
